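Where inhibition never reached the appropriate level, the endpoint shown equals the highest concentration tested. Otherwise, values were interpolated linearly from a five-concentration, 48-hour dose response in 96-well plates. TGI denotes the concentration required for complete inhibition of growth.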
Assays:
Assay in all cases: NCI tumour cell line growth inhibition, 48 h
[1] = test system: MCF7 breast
[2] = test system: NCI-H460 lung
[3] = test system: RPMI-8226 leukemia
[4] = test system: DU-145 prostate
[5] = test system: CCRF-CEM leukemia
[6] = test system: OVCAR-4 ovarian
[7] = test system: MOLT-4 leukemia
[8] = test system: M14 melanoma
[9] = test system: SF-268 CNS
[10] = test system: NCI-H522 lung
[11] = test system: UACC-257 melanoma
[12] = test system: SF-539 CNS
[13] = test system: HCC-2998 colon
[14] = test system: HCT-15 colon
[15] = test system: SK-MEL-5 melanoma
[16] = test system: KM12 colon
[17] = test system: K-562 leukemia
[18] = test system: OVCAR-3 ovarian
[19] = test system: ACHN renal
[20] = test system: NCI-H226 lung
[21] = test system: EKVX NSCLC
[22] = test system: A549 NSCLC
[23] = test system: NCI-H23 lung
[24] = test system: COLO 205 colon
[25] = test system: U251 CNS
[26] = test system: CAKI-1 renal
[27] = test system: TK-10 renal
[28] = test system: OVCAR-8 ovarian
[29] = test system: RXF 393 renal
[30] = test system: LOX IMVI melanoma
[31] = test system: SK-MEL-28 melanoma
[32] = test system: SW-620 colon
[33] = test system: UO-31 renal
[34] = test system: SNB-75 CNS
[35] = test system: PC-3 prostate
[36] = test system: SK-MEL-2 melanoma
[37] = test system: NCI/ADR-RES ovarian
[38] = test system: T-47D breast
[39] = test system: SR leukemia
[40] = test system: UACC-62 melanoma
[41] = test system: BT-549 breast
[42] = test system: 786-0 renal
[43] = test system: SNB-19 CNS
[44] = test system: SF-295 CNS
[45] = test system: HS 578T breast
[46] = test system: HL-60(TB) leukemia
[47] = test system: HOP-92 NSCLC
[48] = test system: SK-OV-3 ovarian
[49] = test system: OVCAR-5 ovarian
[50] = test system: HCT-116 colon
[51] = test system: MDA-MB-435
[52] = test system: HOP-62 NSCLC
[53] = test system: SN12C renal
[54] = test system: MDA-MB-231 breast
[55] = test system: HT29 colon
[56] = test system: MDA-N
[57] = test system: IGROV1 ovarian
[58] = test system: MALME-3M melanoma
[59] = test system: A498 renal

Measured: TGI

COC(OC)(c1ccccc1)C(I)I
33.1 µM: [49]
31.9 µM: [19]
22.7 µM: [5]
34.9 µM: [55]
18.5 µM: [14]
20.4 µM: [46]
10.4 µM: [29]
16.9 µM: [21]
29.8 µM: [33]
26.6 µM: [40]
63.1 µM: [38]
24.1 µM: [26]
18.1 µM: [50]
36.4 µM: [54]
35.1 µM: [28]
16.7 µM: [48]
32.4 µM: [30]
18 µM: [51]
> 71 µM: [43]
35.4 µM: [36]
46.1 µM: [9]
> 59.7 µM: [37]
6.98 µM: [10]
50.4 µM: [53]
21.9 µM: [15]
27.4 µM: [6] | [57]
47.4 µM: [1]
13.3 µM: [58]
50.7 µM: [23]
15.2 µM: [8]
> 58.3 µM: [13] | [52]
28.7 µM: [18]
> 67.7 µM: [4]
37.7 µM: [2]
21.5 µM: [42]
> 52.7 µM: [44]
33 µM: [25]
42.4 µM: [20]
> 35.4 µM: [17]
24.2 µM: [24]
30.7 µM: [31] | [35]
17.6 µM: [12]
22.6 µM: [56]
26.2 µM: [27]
26.3 µM: [34]
43.6 µM: [22]
> 45.7 µM: [39]
26.7 µM: [47]
> 49.8 µM: [7]
62.4 µM: [45]
8.73 µM: [11]
23.1 µM: [41]
> 37.1 µM: [32]
40.1 µM: [16]
> 100 µM: [3]

CC1=C(C(=O)NCC(C)O)CC(C(=O)NCC(C)O)=C(C)N1 (stereo not given)
not listed: [58] | [59]
> 100 µM: all other assays above

Cc1ccc(Nc2nc(=O)[nH]c(=O)[nH]2)cc1N=[N+]=[N-]
not listed: [2] | [25] | [31] | [35]
> 100 µM: all other assays above

COc1cc2c3c(n(Cc4ccccc4)c(=O)c2cc1OC)-c1ccccc1C3=O
not listed: [48] | [59]
> 100 µM: all other assays above

CCOC(=O)C#Cc1ccc([N+](=O)[O-])cc1
27.4 µM: [27]
8.62 µM: [9]
27 µM: [22]
3.39 µM: [53]
3.47 µM: [26] | [47]
4.33 µM: [14]
4.68 µM: [3]
7.78 µM: [20]
3.09 µM: [10] | [24]
2.94 µM: [55]
28.7 µM: [13]
7.43 µM: [32]
3 µM: [25]
3.12 µM: [4]
79.5 µM: [37]
8.54 µM: [35]
4.05 µM: [5] | [38] | [40]
5.22 µM: [7]
4.1 µM: [46]
3.03 µM: [50]
7.88 µM: [34]
10.8 µM: [11] | [51]
3.81 µM: [16]
4.71 µM: [21]
5.27 µM: [39]
11.9 µM: [17]
21.8 µM: [45]
11.6 µM: [36]
32 µM: [59]
2.83 µM: [49]
29.2 µM: [2]
25.7 µM: [43]
23.3 µM: [6]
2.63 µM: [29]
2.49 µM: [1]
5.34 µM: [8]
11.3 µM: [52]
23.4 µM: [31]
9.63 µM: [15]
10.5 µM: [28] | [56]
3.13 µM: [18]
3.15 µM: [33]
25.6 µM: [44] | [48]
6.69 µM: [12]
4.76 µM: [41]
3.41 µM: [42]
4.42 µM: [57]
10.2 µM: [19]
2.77 µM: [30]
4.64 µM: [54]
7.55 µM: [23]

O=c1c(O)c(-c2cc(O)c(O)cc2O)oc2cc(O)c(C3OC(CO)C(O)C(O)C3O)c(O)c12 (stereo not given)
not listed: [5] | [13] | [15] | [23] | [24] | [26] | [29] | [58]
> 100 µM: all other assays above

O=c1[nH]c(Nc2cccc(Br)c2)nc2nc[nH]c12
not listed: [12] | [25] | [52] | [53] | [59]
> 100 µM: all other assays above

— PubChem BioAssay (NCI)
